System: calf thymus DNA (ctDNA)
Assay: UV-Vis absorption titration with ctDNA (Benesi-Hildebrand)
Assay type: binding
Settings: Tris-HCl pH 7.4, room temperature
Description: Changes in absorbance intensity (either hyperchromic or hypochromic) and a shift in the peak position (hypsochromicity or batochromicity) are typical spectral properties closely related to the interaction of a drug with DNA [60, 61]. […] The absorption spectra of compounds 3a–3d in the presence of increasing concentrations of ctDNA show hypochromicity (16–51%) and a slight hypsochromic shift (Δλ = 1–9 nm, 3a–3d), findings which indicate that the acridine derivatives have interacted with DNA (Table 3). […]
The binding constant Kb of compounds 3a–3d was determined using the modified Benesi-Hildebrand Equation (6):(6) A0/A−A0=εB/εB + DNA+εB/εB + DNA × 1/KbDNA, where A0 and A are the absorbances of the acridine derivatives in the absence and presence of ctDNA; εB and εB + DNA are the molar extinction coefficients of the acridine derivatives individually and in the bound complex, respectively; Kb is the binding constant; and [DNA] is the concentration of ctDNA. […]
UV-Vis absorption spectrum of the drug-ctDNA complexes were measured on a Varian Cary 100 Bio UV-Vis Spectrophotometer. The UV-Vis spectra of free compounds 3a–3d and drug-ctDNA complexes were recorded at the wavelength range of 220 to 600 nm. […]

For `O=C(N/N=C/c1cccc2cc3ccccc3nc12)c1ccc(F)cc1` [3b, N′-[(E)-Acridin-4-ylmethylidene]-4-fluorobenzohydrazide], the “Kb, binding constant with ctDNA” value was 3180 M⁻¹.
